Entries after “also recorded” stand apart in the source; their conditions may differ. Read-outs that look alike come from different tables or passages of the source.
Key:
PDGFR = conditions: read-out: inhibition of PDGFR, cell-free assay; cited from earlier work
VEGFR = conditions: read-out: inhibition of VEGFR, cell-free assay; cited from earlier work
c-KIT = conditions: read-out: inhibition of c-KIT, cell-free assay; cited from earlier work
MEK5 = MEK5 (Homo sapiens, UniProt Q13163); test: ADP-Glo biochemical kinase assay, MEK5; conditions: functional profiling assay
Chain of MEK5 (Q13163 whole entry): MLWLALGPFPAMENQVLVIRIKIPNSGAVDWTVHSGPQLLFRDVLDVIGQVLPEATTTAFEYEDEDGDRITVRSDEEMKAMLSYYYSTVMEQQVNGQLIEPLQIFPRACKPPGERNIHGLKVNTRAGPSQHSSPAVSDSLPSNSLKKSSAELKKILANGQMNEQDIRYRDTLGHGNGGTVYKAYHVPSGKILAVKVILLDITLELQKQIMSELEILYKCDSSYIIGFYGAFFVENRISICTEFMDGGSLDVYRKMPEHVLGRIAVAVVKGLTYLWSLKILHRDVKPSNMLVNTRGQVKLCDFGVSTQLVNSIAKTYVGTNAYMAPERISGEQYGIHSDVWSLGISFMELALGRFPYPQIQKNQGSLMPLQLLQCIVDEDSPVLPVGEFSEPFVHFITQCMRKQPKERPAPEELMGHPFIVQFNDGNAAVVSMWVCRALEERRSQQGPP

MEK7 = target: T1, MEK7 (Homo sapiens, UniProt O14733); test: ADP-Glo biochemical kinase assay, MEK7; conditions: functional profiling assay
T1 sequence (O14733 1-419): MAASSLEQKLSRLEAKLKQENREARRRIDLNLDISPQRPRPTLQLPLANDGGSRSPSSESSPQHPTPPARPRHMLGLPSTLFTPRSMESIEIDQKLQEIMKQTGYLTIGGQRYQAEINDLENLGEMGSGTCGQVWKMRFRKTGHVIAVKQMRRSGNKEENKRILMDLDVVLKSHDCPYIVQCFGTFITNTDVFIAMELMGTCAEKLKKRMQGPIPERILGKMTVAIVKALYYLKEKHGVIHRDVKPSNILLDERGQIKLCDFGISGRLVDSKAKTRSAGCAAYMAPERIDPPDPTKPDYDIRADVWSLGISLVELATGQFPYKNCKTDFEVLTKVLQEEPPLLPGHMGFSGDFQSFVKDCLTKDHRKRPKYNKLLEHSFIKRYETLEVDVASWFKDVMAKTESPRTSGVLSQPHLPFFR

MEK6 = target: T2, MEK6 (Homo sapiens, UniProt P52564); test: ADP-Glo biochemical kinase assay, MEK6
T2 sequence (P52564 1-334): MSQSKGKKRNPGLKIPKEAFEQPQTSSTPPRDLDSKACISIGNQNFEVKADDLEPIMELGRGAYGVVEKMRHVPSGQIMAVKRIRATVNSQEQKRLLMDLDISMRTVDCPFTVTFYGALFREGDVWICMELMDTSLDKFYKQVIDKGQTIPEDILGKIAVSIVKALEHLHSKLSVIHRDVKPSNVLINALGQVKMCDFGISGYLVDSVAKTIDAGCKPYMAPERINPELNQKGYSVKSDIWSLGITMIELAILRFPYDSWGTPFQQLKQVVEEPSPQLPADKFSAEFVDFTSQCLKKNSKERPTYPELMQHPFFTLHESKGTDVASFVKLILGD

MEK4 = target: T3, MEK4 (Homo sapiens, UniProt P45985); test: ADP-Glo biochemical kinase assay, MEK4; conditions: read-out: IC50 against MEK4, ATP below Km
T3 sequence (P45985 1-399): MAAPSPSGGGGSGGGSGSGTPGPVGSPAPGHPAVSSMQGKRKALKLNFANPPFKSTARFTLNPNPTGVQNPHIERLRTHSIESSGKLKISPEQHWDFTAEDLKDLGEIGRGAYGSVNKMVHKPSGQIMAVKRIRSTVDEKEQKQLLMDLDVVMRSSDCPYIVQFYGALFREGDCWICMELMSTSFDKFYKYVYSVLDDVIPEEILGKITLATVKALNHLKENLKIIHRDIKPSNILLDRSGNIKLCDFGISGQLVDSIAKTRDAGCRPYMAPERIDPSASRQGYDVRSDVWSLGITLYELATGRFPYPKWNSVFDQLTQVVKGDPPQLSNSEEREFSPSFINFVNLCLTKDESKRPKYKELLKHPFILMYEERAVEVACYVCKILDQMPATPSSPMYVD

5-[[4-[(2, 3-Dimethyl-2 H-indazol-6-yl) methylamino]-2-pyrimidinyl] amino]-2-methyl-benzene-sulfonamide [Pazopanib]
IC50 (PDGFR): 0.084 µM | IC50 (VEGFR): 0.01 to 0.047 µM | IC50 (c-KIT): 0.14 µM

CCN1CCN(Cc2ccc(NC(=O)Nc3ccc(Oc4cc(NC)ncn4)cc3)cc2C(F)(F)F)CC1 [AST-487]
inhibition of MEK5 (in words) (MEK5): strongly inhibited | inhibition of MEK7 (in words) (MEK7): inhibition; also recorded: strongly inhibited

CN(C)C[C@@H]1CCn2cc(c3ccccc32)C2=C(C(=O)NC2=O)c2cn(c3ccccc23)CCO1 [LY-333531]
inhibition of MEK7 (in words) (MEK7): inhibition

CCCS(=O)(=O)Nc1ccc(F)c(C(=O)c2c[nH]c3ncc(Cl)cc23)c1F [PLX-4720]
IC50 (MEK6): 60 µM

O=C(c1c(F)cccc1F)c1c[nH]c2ncc(Cl)cc12 [compound 3a]
IC50 (MEK6; read-out: IC50 against MEK6, ADP-Glo, ATP below Km): 75.1 µM | IC50 (MEK4): 6.9 µM
